Patent US10449157B2, “Process for producing microcapsules comprising an active component encapsulated, protected and stabilised within a protein shell” (Anabio Technologies Limited, priority 2013, dated 2019)

Columns and labels:
[1] = product literature; cited from earlier work
[2] = Electrophoretic mobility (zeta potential); type: physicochemical
[3] = Stability trials of free and encapsulated Creatine in water (HPLC)

SMILES	long term stability in water [1]	zeta potential [2] [mV]	Creatine concentration reduced by ([3]; 15 min incubation in water at room temperature) [%]	first-order degradation rate constant ([3]; in water at 25° C.) [per day]
CN(CC(=O)O)C(=N)N.O [CREAPURE, Creatine Monohydrate]	no long term stability			
CN(CC(=O)O)C(=N)N.O [commercial Creatine monohydrate, Creatine monohydrate]		−2.4	66	0.0263
